Assay results as given in PMC6362118, “Pharmacophore-guided discovery of CDC25 inhibitors causing cell cycle arrest and tumor regression” (Scientific Reports, 2019).

Columns and labels:
[1] = tested on: Apc/K-Ras intestinal organoids; assay: Growth and differentiation of Apc/K-Ras intestinal organoids; assay type: cell-based, mouse
Method: Intestinal crypts were isolated from Apc/K-Ras animals bearing Apc^1638N and villin-driven K-Ras^G12V alleles with slight modifications[36] of a previously described method. Briefly, crypts were isolated and purified, embedded in 50 μl matrigel drops (Corning, 356231) and overlaid with 500 μl organoid medium Advanced DMEM/F12 (Life Technologies, 11320-082) containing 2 mM GlutaMAX (Life Technologies, 35050-061), 10 mM HEPES buffer (Sigma, 83264-100ML-F), 0.5 U/ml Penicillin/Streptomycin (Life Technologies, 15070-063), N2 (Life Technologies, 17502-048), B27 (Life Technologies, 12587-010)]. Organoids were expanded for 5 days in growth factor supplemented medium containing 50 ng/ml mEGF (Life Technologies, PMG8041), 100 ng/ml mNoggin (Peprotech, 250–38) and 500 ng/ml hRSPO1 (R&D, 4645-RS-025). EGF and R-spondin were subsequently removed to select for organoids that had lost the wild-type Apc copy. The medium was changed every 2 days. Established mutant lines were passaged every four days by mechanical disruption with a bent P1000 pipette tip.
(§1) 34 SUPPLEMENTARY MATERIALS AND METHODS
(§2) 36 Antibodies and chemicals - The following antibodies were used for Western blot:
(§3) 37 Rabbit monoclonal antibodies to CDK1-pThr14 (#2543), CDK1-pTyr15 (#9111), Histone
(§4) 39 Technology (Beverly, MA, USA). Mouse monoclonal antibodies to CDC25A (F-6, sc-
(§5) 41 from Santa Cruz Biotechnology (Santa Cruz, CA, USA). The mouse monoclonal
(§6) 42 antibody MPM2 (05-368) was from Upstate (Lake Placid, NY, USA). The mouse
(§7) 43 monoclonal antibody to the HA tag (HA.11, MMS-101P) was from BioLegend (S. Diego,
(§8) 44 CA, USA). The rabbit polyclonal antibody to PARP-1 (#227244) was obtained from
(§9) 45 Abcam. HRP-conjugated anti-mouse and anti-rabbit secondary antibodies were obtained
(§10) 46 from GE-Healthcare (Otelfingen, Switzerland). HRP-conjugated IgG-k-BP was
(§11) 47 purchased from Santa Cruz Biotechnology (Santa Cruz, CA, USA).
(§12) 48 The following antibodies were used for immunofluorescence on a Zeiss LSM 710
(§13) 49 confocal microscope: mouse monoclonal to beta-catenin (Cl. 14, BD transduction Lab.),
50 rabbit polyclonal to lysozyme (A0099, Dako). […]

[2] = molecular target: T1, CDC25C (Homo sapiens, UniProt P30307); assay: Enzymatic assay (OMFP substrate) on recombinant CDC25C; assay type: biochemical; conditions: mixed-model inhibition equation
T1 construct: GST (pGEX vector) (N); made in house; host or cells: E. coli BL21
Excerpt: as §1, §2, §3, §4, §5, §6, §7, §8, §9, §10, §11, §12, §13
(§14) 50 rabbit polyclonal to lysozyme (A0099, Dako). Secondary antibodies were: Alexa 488 […]
(§15) 70 V-shaped 96 well plates and read at defined intervals on a Molecular Devices
(§16) 71 SpectraMax microplate reader (ex: 490 nm / em: 525 nm). […]
(§17) 72 calculated from Lineweaver-Burk double-reciprocal plots of the data were obtained using […]
(§18) 88 assessed as described 4. Data were plotted with Prism 7® and analyzed by non-linear […]

[3] = molecular target: T2, CDC25B (Homo sapiens, UniProt P30305); assay: Enzymatic assay (OMFP substrate) on recombinant CDC25B; assay type: biochemical; conditions: mixed-model inhibition equation
T2 construct: GST (pGEX vector) (N); made in house; host or cells: E. coli BL21
Excerpt: as §1, §2, §3, §4, §5, §6, §7, §8, §9, §10, §11, §12, §13, §14, §15, §16, §17, §18

T1 sequence (P30307 whole entry): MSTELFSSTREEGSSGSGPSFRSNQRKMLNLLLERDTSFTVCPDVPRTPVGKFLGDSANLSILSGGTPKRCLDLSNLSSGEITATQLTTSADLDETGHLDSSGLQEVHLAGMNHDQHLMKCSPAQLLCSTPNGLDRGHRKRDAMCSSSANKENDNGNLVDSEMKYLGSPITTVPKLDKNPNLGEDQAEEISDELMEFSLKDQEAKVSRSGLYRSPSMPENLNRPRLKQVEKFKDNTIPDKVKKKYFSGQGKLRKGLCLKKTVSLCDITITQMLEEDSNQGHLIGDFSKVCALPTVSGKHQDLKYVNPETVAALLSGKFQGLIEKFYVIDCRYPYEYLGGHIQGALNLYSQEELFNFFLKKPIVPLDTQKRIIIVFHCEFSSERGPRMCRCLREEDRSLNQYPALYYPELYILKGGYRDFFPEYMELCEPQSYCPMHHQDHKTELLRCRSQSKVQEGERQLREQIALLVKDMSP
T2 sequence (P30305 whole entry): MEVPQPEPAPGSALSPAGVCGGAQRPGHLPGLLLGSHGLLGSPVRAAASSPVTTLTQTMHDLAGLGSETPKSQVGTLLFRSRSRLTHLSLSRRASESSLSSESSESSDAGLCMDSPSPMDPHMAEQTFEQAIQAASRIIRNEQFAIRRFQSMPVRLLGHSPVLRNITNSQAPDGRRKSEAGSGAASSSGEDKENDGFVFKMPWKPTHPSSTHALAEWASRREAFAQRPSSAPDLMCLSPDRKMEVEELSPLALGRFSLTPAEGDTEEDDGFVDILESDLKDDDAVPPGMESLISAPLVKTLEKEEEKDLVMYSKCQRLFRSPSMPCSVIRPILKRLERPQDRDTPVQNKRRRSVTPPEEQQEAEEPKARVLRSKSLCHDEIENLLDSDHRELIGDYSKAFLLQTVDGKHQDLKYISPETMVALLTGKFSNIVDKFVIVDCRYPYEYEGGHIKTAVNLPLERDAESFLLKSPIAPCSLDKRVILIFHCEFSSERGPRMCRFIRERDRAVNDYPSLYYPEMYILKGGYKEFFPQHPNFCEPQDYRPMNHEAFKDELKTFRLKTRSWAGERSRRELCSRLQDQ

| SMILES | expression of lysozyme (differentiation marker), confocal immunofluorescence ([1]; 5 μM) | organoid morphology ([1]; 5 μM, 48 h) | organoid death ([1]; higher doses (data not shown)) | Ki [2] | Ki [3] |
| --- | --- | --- | --- | --- | --- |
| O=C1C(c2ccc(O)cc2O)=CC(=O)c2c(O)cccc21 [UPD-176, 5-hydroxy-2-(2,4-dihydroxyphenyl)naphthalene-1,4-dione] | augmented expression of lysozyme | growing spheroids partially invaginated | massive death |  |  |
| COc1cccc(SC2=CC(=O)c3cccc(O)c3C2=O)c1 [UPD-795, 2-(3-methoxyphenylthio)-8-hydroxynaphthalene-1,4-dione] |  |  |  | 850 ± 300 nM | 440 ± 100 nM |
